In patent US10696615B2, “Prenylated hydroxystilbenes” (The University of Sydney, priority 2011, dated 2020):

How the values were obtained:
SF-268 = test: NCI in vitro cancer screen, CNS Cancer; format: cell-based, human; settings: SF-268, unit not printed (M)
SNB-75 = test: NCI in vitro cancer screen, CNS Cancer; format: cell-based, human; settings: SNB-75, unit not printed (M)
NCI-H322M = test: NCI in vitro cancer screen, Non-Small Cell Lung Cancer; format: cell-based, human; settings: unit not printed (M)
MALME-3M = test: NCI in vitro cancer screen, Melanoma; format: cell-based, human; settings: MALME-3M, unit not printed (M)
HCC-2998 = test: NCI in vitro cancer screen, Colon Cancer; format: cell-based, human; settings: HCC-2998, unit not printed (M)
CAKI-1 = test: NCI in vitro cancer screen, Renal Cancer; format: cell-based, human; settings: CAKI-1, unit not printed (M)
ACHN = test: NCI in vitro cancer screen, Renal Cancer; format: cell-based, human; settings: unit not printed (M)
A498 = test: NCI in vitro cancer screen, Renal Cancer; format: cell-based, human; settings: A498, unit not printed (M)
U251 = test: NCI in vitro cancer screen, CNS Cancer; format: cell-based, human; settings: U251, unit not printed (M)
A549/ATCC = test: NCI in vitro cancer screen, Non-Small Cell Lung Cancer; format: cell-based, human; settings: unit not printed (M)
SN12C = test: NCI in vitro cancer screen, Renal Cancer; format: cell-based, human; settings: unit not printed (M)
MCF7 = test: NCI in vitro cancer screen, Breast Cancer; format: cell-based, human; settings: MCF7, unit not printed (M)
IGROV1 = test: NCI in vitro cancer screen, Ovarian Cancer; format: cell-based, human; settings: IGROV1, unit not printed (M)
SF-539 = test: NCI in vitro cancer screen, CNS Cancer; format: cell-based; settings: SF-539, unit not printed (M)
SK-MEL-2 = test: NCI in vitro cancer screen, Melanoma; format: cell-based, human; settings: SK-MEL-2, unit not printed (M)
MDA-MB-435 = test: NCI in vitro cancer screen, Melanoma; format: cell-based, human; settings: MDA-MB-435, unit not printed (M)
TK-10 = test: NCI in vitro cancer screen, Renal Cancer; format: cell-based, human; settings: TK-10, unit not printed (M)
HS 578T = test: NCI in vitro cancer screen, Breast Cancer; format: cell-based, human; settings: unit not printed (M)
NCI-H522 = test: NCI in vitro cancer screen, Non-Small Cell Lung Cancer; format: cell-based, human; settings: NCI-H522, unit not printed (M)
HCT-15 = test: NCI in vitro cancer screen, Colon Cancer; format: cell-based, human; settings: HCT-15, unit not printed (M)
NCI-H226 = test: NCI in vitro cancer screen, Non-Small Cell Lung Cancer; format: cell-based, human; settings: NCI-H226, unit not printed (M)
PC-3 = test: NCI in vitro cancer screen, Prostate Cancer; format: cell-based, human; settings: PC-3, unit not printed (M)
SW-620 = test: NCI in vitro cancer screen, Colon Cancer; format: cell-based, human; settings: SW-620, unit not printed (M)
[1] = test system: MDA-MB-231 (MDA-MB-231/ATCC); test: NCI in vitro cancer screen, Breast Cancer; format: cell-based, human; settings: MDA-MB-231/ATCC, unit not printed (M)
OVCAR-3 = test: NCI in vitro cancer screen, Ovarian Cancer; format: cell-based, human; settings: OVCAR-3, unit not printed (M)
EKVX = test: NCI in vitro cancer screen, Non-Small Cell Lung Cancer; format: cell-based, human; settings: unit not printed (M)
KM12 = test: NCI in vitro cancer screen, Colon Cancer; format: cell-based, human; settings: KM12, unit not printed (M)
[2] = Homo sapiens, read-out: LC50 (the source's name)

COc1cc(/C=C/c2cc(O)cc(O)c2CC=C(C)C)ccc1O [USYDS10, (E)-2-(3-methyl-2-buten-1-yl)-3,4′,5-trihydroxy-3′-methoxystilbene]
GI50 (SF-268; Homo sapiens): 1400 nM
CC50 (SF-268; [2]): > 100 µM
TGI (SF-268): 4.96E−5
GI50 (SNB-75; Homo sapiens): 236 nM
CC50 (SNB-75; [2]): 36.1 µM
TGI (SNB-75): 1.22E−5
GI50 (NCI-H322M; Homo sapiens): 11.8 µM
LC50 (50% lethal concentration) (NCI-H322M; Homo sapiens): 83.7 µM
TGI (NCI-H322M): 3.14E−5
GI50 (MALME-3M; Homo sapiens): 18.7 µM
CC50 (MALME-3M; [2]): 92.9 µM
TGI (MALME-3M): 4.17E−5
TGI (HCC-2998): 1.19E−5
GI50 (HCC-2998; Homo sapiens): 1810 nM
CC50 (HCC-2998; [2]): 39.8 µM
TGI (CAKI-1): 6.68E−5
GI50 (CAKI-1; Homo sapiens): 539 nM
CC50 (CAKI-1; [2]): > 100 µM
GI50 (ACHN; Homo sapiens): 903 nM
CC50 (ACHN; [2]): > 100 µM
TGI (ACHN): 3.79E−5
TGI (A498): 7.85E−6
GI50 (A498; Homo sapiens): 2170 nM
CC50 (A498; [2]): 34.8 µM
GI50 (U251; Homo sapiens, U-251): 419 nM
CC50 (U251; Homo sapiens, U-251, read-out: LC50 (the source's name)): 78.8 µM
TGI (U251): 1.62E−5
GI50 (A549/ATCC; Homo sapiens): 660 nM
CC50 (A549/ATCC; [2]): > 100 µM
TGI (A549/ATCC): 2.25E−5
GI50 (SN12C; Homo sapiens): 671 nM
CC50 (SN12C; [2]): > 100 µM
TGI (SN12C): 2.98E−5
GI50 (MCF7; Homo sapiens): 332 nM
CC50 (MCF7; [2]): 50.6 µM
TGI (MCF7): 1.30E−5
GI50 (IGROV1; Homo sapiens, IGROV-1): 2030 nM
CC50 (IGROV1; Homo sapiens, IGROV-1, read-out: LC50 (the source's name)): > 100 µM
TGI (IGROV1): >1.00E−4
GI50 (SF-539; Homo sapiens): 376 nM
CC50 (SF-539; [2]): 41.7 µM
TGI (SF-539): 1.29E−5
GI50 (SK-MEL-2; Homo sapiens): 576 nM
LC50 (SK-MEL-2; Homo sapiens): > 100 µM
TGI (SK-MEL-2): 3.26E−5
GI50 (MDA-MB-435; Homo sapiens): 38.5 nM
CC50 (MDA-MB-435; [2]): > 100 µM
TGI (MDA-MB-435): 2.56E−7
GI50 (TK-10; Homo sapiens): 9.55 µM
LC50 (TK-10; Homo sapiens): > 100 µM
TGI (TK-10): 5.15E−5
GI50 (HS 578T; Homo sapiens): 292 nM
CC50 (HS 578T; [2]): > 100 µM
TGI (HS 578T): 2.60E−5
GI50 (NCI-H522; Homo sapiens): 349 nM
CC50 (NCI-H522; [2]): 42.2 µM
TGI (NCI-H522): 1.46E−5
TGI (HCT-15): 2.09E−5
GI50 (HCT-15; Homo sapiens): 498 nM
CC50 (HCT-15; [2]): > 100 µM
GI50 (NCI-H226; Homo sapiens): 5.35 µM
LC50 (50% lethal concentration) (NCI-H226; Homo sapiens): > 100 µM
TGI (NCI-H226): 3.50E−5
GI50 (PC-3; Homo sapiens): 2270 nM
CC50 (PC-3; [2]): > 100 µM
TGI (PC-3): 3.12E−5
GI50 (SW-620; Homo sapiens): 362 nM
CC50 (SW-620; [2]): 85.5 µM
TGI (SW-620): 2.15E−5
GI50 ([1]; Homo sapiens): 642 nM
CC50 [1, 2]: > 100 µM
TGI [1]: 3.20E−5
GI50 (OVCAR-3; Homo sapiens): 372 nM
CC50 (OVCAR-3; [2]): > 100 µM
TGI (OVCAR-3): 2.03E−5
GI50 (EKVX; Homo sapiens): 12.2 µM
CC50 (EKVX; [2]): > 100 µM
TGI (EKVX): 7.34E−5
GI50 (KM12; Homo sapiens): 497 nM
CC50 (KM12; [2]): 85.8 µM
TGI (KM12): 1.53E−5
